From publication PMC10508264, “Exploring the antioxidant, antimicrobial, cytotoxic and biothermodynamic properties of novel morpholine derivative bioactive Mn(II), Co(II) and Ni(II) complexes – combined experimental and theoretical measurements towards DNA/BSA/SARS-CoV-2 3CL^Pro” (RSC Medicinal Chemistry, 2023)

What was measured:
EB–DNA = EB–DNA competitive fluorescence emission titration; assay type: binding; details: for KSV (SV method I), DNA / Kass (SV method II), DNA / Kq (SV method I), DNA: EB–DNA; for Kq (SV method I), DNA: τ0 = 10^−8 s; for Kapp (apparent binding constant): KEB = 10^7 M^−1 at 50 μM EB; for LWB method KLB: Lineweaver–Burk
Procedure: Titrations were performed for all tested compounds (1–200 μM) with pre-incubated EB-bound DNA and the intensity variations between 510 nm and 610 nm were carefully monitored in the presence and absence of DNA (200 μM) during the initial emission and excitation by EB.[31]
Fluorescence emission spectral titration is an efficient approach to evaluating the binding properties of DNA/BSA biomolecules. In general, the fluorescence of EB is quite weak in aqueous solution, but when it is bound to DNA, the fluorescence intensity rises. However, it is a well-known imperative intercalator and is more supportive in distinguishing the binding strength of non-fluorescence test substances. Also, the fluorescence emission spectra of the EB–DNA adduct were examined at 610 nm in the absence and presence of rising quantities of each test compound. When the complex concentration (0–240 μM) rises, the fluorescence intensity of the EB-bound DNA complex diminishes owing to the displacement of EB from CT-DNA. A notable reduction in the fluorescence emission intensity at 610 nm is observed (Fig. S26 ^† and Table 4). The photoelectron shift from DNA's guanine base to the excited states may be the cause of the frequency quenching in the emission of the test substance by DNA. […] Therefore, the competitive binding experiment can make use of EB as a fluorescent probe. […] This is further evidence that complexes (1–3) strongly bind intercalatively with DNA. The observed results agree well with the data from electronic absorption spectral measurements. Additionally, the experiment was extended to examine the binding properties between the test substance and BSA. BSA mostly contains three amino acid residues (tyrosine, tryptophan, and phenylalanine), which give it its inherent fluorescence. […] These two residues also have minimal quenching effects. Tryptophan in BSA fluoresces mostly because of a residue that is trapped inside a hydrophobic cavity. Therefore, it is crucial to model potential binding interactions with the metal complexes. […] The fluorescence intensity also reduces while the test substances (1–3) are steadily blended with the BSA solution, proving that complexes (1–3) interact with BSA via altering the protein's secondary structure, which also leads to an alteration in the tryptophan environment of BSA (Fig. S27 ^†). Furthermore, BSA structural similarities share 76% sequence identity with human serum albumin (HSA), the most prevalent protein in blood plasma that transports ions and proteins to cells and tissues. HSA is able to readily crystallize under the trivalent cations, but BSA has no ready crystallizing property. However, they consist of parallel physicochemical properties to each other.[74,75] Additionally, the Stern–Volmer eqn (12) and (13) were employed to analyze the data (Fig. S28 ^† and Table 4). Additionally, the kq values for DNA and BSA binding were acquired in the range of 1.1636–2.8863 × 10^12 and 2.6390–7.0774 × 10^12 mol^−1 s^−1, respectively. They are also much greater than the collision quenching constant value (2.0 × 10^10 mol^−1 s^−1). Therefore, it is assumed that the static quenching process was brought on by adduct construction between the test compounds and BSA rather than a dynamic collision. However, fluorescence spectroscopy is generally plagued by the inner filter effect (IFE), disturbing spectral analysis. The energizing ray is attenuated due to the highly concentrated solution sample. As a result, strong fluorescence is only seen on surfaces facing the excitation beam.

[1] = Superoxide scavenging assay; details: for % Inhibition, superoxide: 590 nm; for IC50: read-out: IC50, superoxide
NHDF = assay: MTT cell viability assay, NHDF; assay type: cell-based, human; details: NHDF normal cells, 72 h of exposure
Procedure: Cellular viability or metabolic properties can be measured using the MTT assay, which is a powerful and consistent method for cytotoxic properties. […] As per the colorimetric approach, the IC50 values of all compounds were evaluated via the percentage of cell viability or inhibition of growth.[128] […] However, complexes (2) and (3) were exposed to similar cytotoxic potential as the others,[129] which induces apoptosis due to their ability to produce ROS more efficiently than the free ligand. […] The cytotoxic effectiveness is dependent upon the DNA binding modalities, the structure–activity relationship, the drug concentrations, and the incubation period exposure.[130] […] Coordination between the ligands and metal ions results in charge equilibration, which diminishes the polarity of the metal ions and also causes the ability of the test complexes to pass via the cell membrane lipid layer in accordance with Tweedy's chelation theory. Thus, it inhibits the synthesis of cell-wall/protein/nucleic acid. Additionally, the results of DNA binding tests using these complexes, including gel electrophoresis, UV-vis spectral titration, hydrodynamics, emission, and CV findings, were in good agreement with the findings of cytotoxicity.[131] Expressions eqn (44) and (45) were applied to measure the percentage of growth inhibition and cell viability (Table 10). In this case, complexes (2) and (3) have been proven to have greater biological efficiency than the others. Cytotoxicity depends on not only the hydrophilicity or lipophilicity and permeability, which only assist the crossing of the cell membrane but are not responsible for cell death, but also on several other factors, including the Lewis acid character, overall stability, solubility, conductivity, compatibility, length of the metal–ligand bond, overall charge, electron density, reduction potential, dipole moment, intermolecular hydrogen bonds, proton transfer equilibrium, and coordination environment. These significant elements might also contribute to the increased biological activity. Moreover, cobalt is also generally not considered to be a very toxic element, and its coordination complexes have fascinating redox and magnetic characteristics that fit them for a remarkable range of biological and medical uses. […] Moreover, it is possible to intelligently adjust these factors to successfully target a desired pathway or biomolecule. Designing such well-controlled and selective cobalt-based therapeutics may benefit from a mechanistic understanding of the varied bioactivities of cobalt complexes. Thus, knowing the mechanism of action can direct the advancement of prospective cobalt treatments to clinical trial.[133]
2.5. Assessment of in-vitro antimicrobial properties
bacteria and 7 days for fungal strains.

Row | SMILES | Scatchard analysis KSA (EB–DNA) | KSV (SV method I), DNA (EB–DNA) | Kass (SV method II), DNA (EB–DNA) | Kq (SV method I), DNA (EB–DNA) | Kapp (apparent binding constant) (EB–DNA) | LWB method KLB (EB–DNA) | % Inhibition, superoxide ([1]; 40 µM) | % Inhibition, superoxide ([1]; 80 µM) | % Inhibition, superoxide ([1]; 120 µM) | % Inhibition, superoxide ([1]; 160 µM) | % Inhibition, superoxide ([1]; 200 µM) | % Inhibition, superoxide ([1]; 240 µM) | IC50 (NHDF) | IC50 [1] | IC50 (NHDF; Homo sapiens)
1 | [Mn+2].[O-]c1ccccc1N=Cc1ccc(N2CCOCC2)cc1.[O-]c1ccccc1N=Cc1ccc(N2CCOCC2)cc1.c1ccc(-c2ccccn2)nc1 [(1)] | 30094 M⁻¹ | 16755 M⁻¹ | 11954 M⁻¹ | 1.6755e+12 M⁻¹ s⁻¹ | 5.926e+06 M⁻¹ | 7149 M⁻¹ | 06.85% | 13.32% | 22.56% | 36.63% | 45.42% | 54.12% | 76.6 ± 3.8 µM |  | 
2 | [Co+2].[O-]c1ccccc1N=Cc1ccc(N2CCOCC2)cc1.[O-]c1ccccc1N=Cc1ccc(N2CCOCC2)cc1.c1ccc(-c2ccccn2)nc1 [(2)] | 33185 M⁻¹ | 28863 M⁻¹ | 32903 M⁻¹ | 2.8863e+12 M⁻¹ s⁻¹ | 8.349e+06 M⁻¹ | 13497 M⁻¹ | 07.02% | 11.73% | 25.81% | 43.12% | 54.42% | 62.24% | 74 ± 3.7 µM | 200 µM | 
3 | [Ni+2].[O-]c1ccccc1N=Cc1ccc(N2CCOCC2)cc1.[O-]c1ccccc1N=Cc1ccc(N2CCOCC2)cc1.c1ccc(-c2ccccn2)nc1 [(3)] | 32363 M⁻¹ | 16879 M⁻¹ | 10350 M⁻¹ | 1.6879e+12 M⁻¹ s⁻¹ | 7.34e+06 M⁻¹ | 7786 M⁻¹ | 06.27% | 12.17% | 24.31% | 40.01% | 50.78% | 58.83% | 73.8 ± 3.7 µM | 200 µM | 
4 | Oc1ccccc1N=Cc1ccc(N2CCOCC2)cc1 [(HL), 2-(4-morpholinobenzylideneamino)phenol] | 19093 M⁻¹ | 11636 M⁻¹ | 9606 M⁻¹ | 1.1636e+12 M⁻¹ s⁻¹ | 5.829e+06 M⁻¹ | 6985 M⁻¹ | 05.23% | 10.74% | 18.85% | 33.55% | 40.91% | 50.42% |  |  | 209 ± 10.4 µM
